# Test system: 349418-098-R-PDC complex spheroid viability
# Assay: Anticancer human tumor 349418-098-R-PDC patient-derived lung adenocarcinoma cell line growth inhibition [RAS]
# Details: for IC50: curve of first compound; for viability, T/C: stronger effect = lower value
# Procedure, shortened: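 Tumour cells grown as complex spheroids with HUVEC endothelial cells and mesenchymal stem cells, treated with RAS pathway inhibitor combinations. Each agent spans half-log steps from near clinical Cmax, or 10 microM where Cmax is unknown.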
# [1] = second compound 0.000949 µM, first compound 0.0316 µM
# [2] = second compound 0.000949 µM, first compound 0.1 µM
# [3] = second compound 0.000949 µM, first compound 0.316 µM
# [4] = second compound 0.000949 µM, first compound 1 µM
# [5] = second compound 0.000949 µM, first compound 3.16 µM
# [6] = second compound 0.000949 µM, first compound 10 µM
# [7] = second compound 0.003 µM, first compound 0.0316 µM
# [8] = second compound 0.003 µM, first compound 0.1 µM
# [9] = second compound 0.003 µM, first compound 0.316 µM
# [10] = second compound 0.003 µM, first compound 1 µM
# [11] = second compound 0.003 µM, first compound 3.16 µM
# [12] = second compound 0.003 µM, first compound 10 µM
# [13] = second compound 0.00949 µM, first compound 0.0316 µM
# [14] = second compound 0.00949 µM, first compound 0.1 µM
# [15] = second compound 0.00949 µM, first compound 0.316 µM
# [16] = second compound 0.00949 µM, first compound 1 µM
# [17] = second compound 0.00949 µM, first compound 3.16 µM
# [18] = second compound 0.00949 µM, first compound 10 µM
# [19] = second compound 0.03 µM, first compound 0.0316 µM
# [20] = second compound 0.03 µM, first compound 0.1 µM
# [21] = second compound 0.03 µM, first compound 0.316 µM
# [22] = second compound 0.03 µM, first compound 1 µM
# [23] = second compound 0.03 µM, first compound 3.16 µM
# [24] = second compound 0.03 µM, first compound 10 µM
# [25] = second compound 0.0949 µM, first compound 0.0316 µM
# [26] = second compound 0.0949 µM, first compound 0.1 µM
# [27] = second compound 0.0949 µM, first compound 0.316 µM
# [28] = second compound 0.0949 µM, first compound 1 µM
# [29] = second compound 0.0949 µM, first compound 3.16 µM
# [30] = second compound 0.0949 µM, first compound 10 µM
# [31] = second compound 0.3 µM, first compound 0.0316 µM
# [32] = second compound 0.3 µM, first compound 0.1 µM
# [33] = second compound 0.3 µM, first compound 0.316 µM
# [34] = second compound 0.3 µM, first compound 1 µM
# [35] = second compound 0.3 µM, first compound 3.16 µM
# [36] = second compound 0.3 µM, first compound 10 µM
# 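Note: spheroids exposed to compound for seven days before viability readout.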
smiles,measurement,setting,value
CC1(O)CCCC1n1c(=O)c(C(F)F)cc2cnc(NC3CCN(S(C)(=O)=O)CC3)nc21 (centres undefined) + CCn1c(-c2cccnc2C(C)OC)c2c3cc(ccc31)N1CCOC(CC(NC(=O)C(C(C)C)N(C)C(=O)C3(F)CCN(C(=O)C#CC(C)(C)N(C)C)CC3)C(=O)N3CCCC(N3)C(=O)OCC(C)(C)C2)C1,IC50,second compound 0.000949 µM,54.1 nM
same,IC50,second compound 0.003 µM,54.9 nM
same,IC50,second compound 0.00949 µM,76.3 nM
same,IC50,second compound 0.03 µM,71 nM
same,IC50,second compound 0.0949 µM,64.2 nM
same,IC50,second compound 0.3 µM,31.6 nM
same,"viability, T/C",[1],60.9%
same,"viability, T/C",[2],35.5%
same,"viability, T/C",[3],27.6%
same,"viability, T/C",[4],21.5%
same,"viability, T/C",[5],18.8%
same,"viability, T/C",[6],2.67%
same,"viability, T/C",[7],60.3%
same,"viability, T/C",[8],38.4%
same,"viability, T/C",[9],24.2%
same,"viability, T/C",[10],20.4%
same,"viability, T/C",[11],17.7%
same,"viability, T/C",[12],2.71%
same,"viability, T/C",[13],67.8%
same,"viability, T/C",[14],45.8%
same,"viability, T/C",[15],23.9%
same,"viability, T/C",[16],20.4%
same,"viability, T/C",[17],15.9%
same,"viability, T/C",[18],3.42%
same,"viability, T/C",[19],70.3%
same,"viability, T/C",[20],39.7%
same,"viability, T/C",[21],24.8%
same,"viability, T/C",[22],19.2%
same,"viability, T/C",[23],20%
same,"viability, T/C",[24],2.63%
same,"viability, T/C",[25],74%
same,"viability, T/C",[26],31.6%
same,"viability, T/C",[27],22.3%
same,"viability, T/C",[28],19.5%
same,"viability, T/C",[29],16.4%
same,"viability, T/C",[30],2.35%
same,"viability, T/C",[31],52.5%
same,"viability, T/C",[32],31.6%
same,"viability, T/C",[33],22.4%
same,"viability, T/C",[34],19%
same,"viability, T/C",[35],18.4%
same,"viability, T/C",[36],2.97%
CCC(CC)c1cc(NC2CCC(N)C2)n2nccc2n1 (centres undefined) + CCn1c(-c2cccnc2C(C)OC)c2c3cc(ccc31)N1CCOC(CC(NC(=O)C(C(C)C)N(C)C(=O)C3(F)CCN(C(=O)C#CC(C)(C)N(C)C)CC3)C(=O)N3CCCC(N3)C(=O)OCC(C)(C)C2)C1,IC50,second compound 0.000949 µM,840 nM
same,IC50,second compound 0.003 µM,1320 nM
same,IC50,second compound 0.00949 µM,793 nM
same,IC50,second compound 0.03 µM,795 nM
same,IC50,second compound 0.0949 µM,1060 nM
same,IC50,second compound 0.3 µM,629 nM
same,"viability, T/C",[1],105%
same,"viability, T/C",[2],105%
same,"viability, T/C",[3],87.2%
same,"viability, T/C",[4],45.2%
same,"viability, T/C",[5],2.1%
same,"viability, T/C",[6],2.24%
same,"viability, T/C",[7],101%
same,"viability, T/C",[8],94.5%
same,"viability, T/C",[9],72.7%
same,"viability, T/C",[10],66.2%
same,"viability, T/C",[11],2.87%
same,"viability, T/C",[12],1.93%
same,"viability, T/C",[13],123%
same,"viability, T/C",[14],105%
same,"viability, T/C",[15],86%
same,"viability, T/C",[16],44.8%
same,"viability, T/C",[17],2.14%
same,"viability, T/C",[18],2.37%
same,"viability, T/C",[19],106%
same,"viability, T/C",[20],85.5%
same,"viability, T/C",[21],97.8%
same,"viability, T/C",[22],38.5%
same,"viability, T/C",[23],2.21%
same,"viability, T/C",[24],2.43%
same,"viability, T/C",[25],95.2%
same,"viability, T/C",[26],78.8%
same,"viability, T/C",[27],91.1%
same,"viability, T/C",[28],52.4%
same,"viability, T/C",[29],2.89%
same,"viability, T/C",[30],2.25%
same,"viability, T/C",[31],80%
same,"viability, T/C",[32],68.8%
same,"viability, T/C",[33],81.8%
same,"viability, T/C",[34],31.9%
same,"viability, T/C",[35],2.89%
same,"viability, T/C",[36],3.28%

# Source: PubChem BioAssay AID2060904 (Molecular Pharmacology Branch, DTP, NCI, 2025)
